Like-named read-outs stand apart in the source and are kept apart here.

Data set [1] has as its system Plasmodium falciparum blood forms (W2 clone, chloroquine-resistant). The data set can be described thus: in vitro antiplasmodial activity, anti-histidine-rich protein II assay. It is filed as cell-based. Here is the method: Continuous culture of P. falciparum and in vitro tests of drug activity - Blood-stage P. falciparum parasites, W2 clone CQ-resistant ([Oduola et al. 1988]), maintained according to [Trager & Jensen (1976)], were used in the drug activity tests after sorbitol-synchronisation ([Lambros & Vanderberg 1979)]. The antiplasmodial activity of the compounds was determined relative to control parasites kept in culture medium only ([Rieckmann et al. 1978)] through the anti-histidine-rich protein II assay ([Noedl et al. 2002)]. The IC50 of parasite growth was determined through sigmoidal dose-response curves built by curve-fitting software (Microcal Origin Software v.5.0). […]

The test system of data set [2] is HepG2 human hepatoma cells. The method, then: The SI was calculated in order to give an insight into the therapeutic index of the molecules, i.e., how far the toxic concentration is from the therapeutic one.
The nature of data set [3]: octanol/water partition coefficient (log P o/w) by HPLC. It is filed as physicochemical. To be noted: determined for the first time in this paper. From the text: Measurement of lipophilicity data - Measurements of the octanol/water partition coefficient (log P o/w) were made by the HPLC technique according to a method described previously ([Minick et al. 1988], [Pomper et al. 1990]). Measurement of the chromatographic capacity factors (k) for each molecule was done at various concentrations in the range of 95-75% methanol containing 0.25% (v/v) 1-octanol, and an aqueous phase consisting of 0.15% (v/v) n-decylamine in the buffering agent 3-morpholinopropane-1-sulfonic acid (MOPS) prepared in 1-octanol saturated water adjusted to pH 7.4. These capacity factors (k’) are extrapolated to 100% of the aqueous component given the value of k’. The logP o/w is obtained by the formula logP o/w = 0.13418 + 0.98452 logk’.

Setting [4] is: P. falciparum W2 clone, CQ-resistant, blood-stage, anti-HRPII assay, read-out: IC50 Pf.

A word on the IC50: it is the concentration that gives 50% inhibition. As for `CCC(=C(c1ccccc1)c1ccccc1)c1ccccc1` [Compound 1], the antiplasmodial activity class entry in data set [1] (P. falciparum W2, class based on IC50) was “inactive”. In addition, the IC50 in data set [1] (setting [4]) was 83 ± 5 µM; in data set [1] (Plasmodium falciparum, W2, P. falciparum W2 clone, CQ-resistant, blood-stage, anti-HRPII assay, read-out: IC50 Pf) it was greater than 60 µM.

As to `CCN(CC)CCCC(C)Nc1ccnc2cc(Cl)ccc12` (stereo not shown) [CQ, chloroquine, reference compound], the half-inhibitory concentration (IC50) in data set [1] (Plasmodium falciparum, W2, read-out: IC50 Pf) was found to be 0.1 ± 0.02 µM.

What is called log P is the decadic logarithm of the partition coefficient of the neutral form, usually between octanol and water. Read a high log P as a more lipophilic compound. With “1-[(4-(3-dimethylaminopropoxy)phenyl-phenyl)methylidene][3]ferrocenophane [Compound 8]”, the IC50 in data set [1] (setting [4]) is 5.9 ± 1.6 µM. Further, the “cytotoxicity class (by MLD50)” value in data set [2] was “toxic (those having MLD50< 100 mM were considered toxic)”. For the same compound, the “log P” value in data set [3] is given as 3.46.

The values above are taken from publication PMC4708017, “Antiplasmodial activity of iron(II) and ruthenium(II) organometallic complexes against Plasmodium falciparum blood parasites” (Memórias do Instituto Oswaldo Cruz, 2015).
